The text below walks through data of patent EP4371976B1, “IONIZABLE LIPIDS AND LIPID NANOPARTICLES CONTAINING THEREOF” (Certest Biotec, S.L., priority 2022, dated 2024).

A short description of data set [1]: Apparent pKa of LNPs comprising the ionizable lipid (Table 6). The following applies: standard formulation 50:10:38.5:1.5.
A short description of data set [2]: RNA encapsulation efficiency of LNPs by Quant-IT Ribogreen. Type of data set: physicochemical. The following applies: LNPs with luciferase mRNA; ionizable lipid:non-cationic lipid:sterol:PEG-modified lipid 50:10:38.5:1.5; percentage of RNA entrapped in the LNP. As for the experimental part:
The mRNA aqueous solution was then carefully added to the ethanol solution, and the resulted solution was homogenized by pipetting up and down for 4-5 times. The resulting LNPs were immediately diluted 1:1 with Tris buffer and dialyzed overnight against Tris buffer containing 15% sucrose. The resulting LNP solution was then collected, and the encapsulated mRNA was assessed by Quant-IT® Ribogreen (Invitrogen R11490) following the manufacturer's instructions.
(§1) The LNP solution was then adjusted to a final concentration of mRNA of 100 µg/ml. Size distribution, polydispersity and Z-potential were measured by dynamic light scattering (DLS) using Malvern Zetasizer Advance Lab Blue Label. RNA encapsulation was assessed by Quant-IT® Ribogreen following the manufacturer's instructions.

The nature of data set [3]: Size distribution, polydispersity and Z-potential of LNPs by dynamic light scattering (Malvern Zetasizer). Type of data set: physicochemical. The following applies: LNPs, standard formulation 50:10:38.5:1.5; DLS. As for the experimental part: as §1

For the molecule `CCCCCCCCC(CCCCCC)COC(=O)CCSCCC(NC(=O)C(CCCCCC)CCCCCCCC)C(=O)NCCN(CC)CC` (stereo not shown) [VC-LC-0474], in data set [1], the “Apparent pKa” value came to 5.61. In data set [2], the “Encaps. efficiency (%)” value stood at 66.27%. In addition, in data set [3], the P.D.I. was found to be 0.21, the “Particle size/ Ø (nm)” value was found to be 153.2 nm and the “Z Potential (± D.E.) [mV]” value was -7.69 mV.
In the same order, the values of `CCCCCCCCC(CCCCCC)COC(=O)CCSCCC(C(=O)NCCCN1CCOCC1)C(=O)OCC(CCCCCC)CCCCCCCC` (stereo not shown) [VC-LC-0606] are 5.64, 51.46%, 0.18, 168.0 nm and -9.73 mV.
On to `CCCCCCCCOC(=O)CCSCCC(NC(=O)C(CCCCCC)CCCCCCCC)C(=O)NCCCN1CCOCC1` (stereo not shown) [VC-LC-0176], for which the “Apparent pKa” value in data set [1] is listed as 5.77. Moreover, the “Encaps. efficiency (%)” value in data set [2] is on record as 47.36%. Moreover, in data set [3], the “Z Potential (± D.E.) [mV]” value is reported as -17.58 mV.
For `CCCCCCCCC(CCCCCC)C(=O)NC(CCSCCC(=O)OCCCCCC)C(=O)NCCCn1ccnc1` (stereo not shown) [VC-LC-0268], the “Apparent pKa” value in data set [1] is listed as 6.18. For the same molecule, in data set [2], the “Encaps. efficiency (%)” value was determined as 29.52%. In addition, in data set [3], the P.D.I. is recorded as 0.14, the “Particle size/ Ø (nm)” value was 173 nm and the “Z Potential (± D.E.) [mV]” value was -10.85 mV.
With `CCCCCCCCCCCCCCCCOC(=O)CCSCCC(NC(=O)C(CCCCCC)CCCCCCCC)C(=O)NCCN1CCN(C)CC1` (stereo not shown) [VC-LC-0185], the “Apparent pKa” value in data set [1] was 5.85. In data set [2], the “Encaps. efficiency (%)” value is 70.97%. In addition, in data set [3], the “Z Potential (± D.E.) [mV]” value is -1.54 mV.
`CCCCCCCC#CCOC(=O)CCSCCC(NC(=O)C(CCCCCC)CCCCCCCC)C(=O)NCCN(CC)CC` (stereo not shown) [VC-LC-0488]: in data set [1], the “Apparent pKa” value was found to be 6.79. Further, the “Encaps. efficiency (%)” value in data set [2] amounted to 62.45%. In data set [3], the P.D.I. was 0.16, the “Particle size/ Ø (nm)” value came to 149.1 nm and the “Z Potential (± D.E.) [mV]” value was -4.15 mV.
The matching figures for `CCCCCCCC/C=C\CCCCCCCCOC(=O)CCSCCC(NC(=O)C(CCCCCC)CCCCCCCC)C(=O)NCCN(CC)CC` (stereo not shown) [VC-LC-0489]: 6.03, 60.57%, 0.13, 143.8 nm and -5.88 mV.
Regarding `CCCCCCCC/C=C\CCCCCCCCOC(=O)CCSCCC(NC(=O)C(CCCCCC)CCCCCCCC)C(=O)NCCCN1CCOCC1` (stereo not shown) [VC-LC-0361], the “Apparent pKa” value in data set [1] was determined as 5.29. For the same molecule, in data set [2], the “Encaps. efficiency (%)” value is given as 41.05%. Moreover, in data set [3], the P.D.I. worked out at 0.18, the “Particle size/ Ø (nm)” value is 169.3 nm and the “Z Potential (± D.E.) [mV]” value was -12.18 mV.
The matching figures for `CCCCCCCCC(CCCCCC)COC(=O)CCSCC(CC(=O)NCCCN1CCOCC1)C(=O)OC(CCCCCCCC)CCCCCCCC` (stereo not shown) [VC-LC-0541]: 6.39, 42.80%, 0.11, 154.7 nm and -6.83 mV.
In the same order, the values of `CCCCCCCCCCCCC(CCCCCCCCCC)COC(=O)CCSCC(CC(=O)NC1CCN(C)CC1)C(=O)OCC(CCCCCC)CCCCCCCC` (stereo not shown) [VC-LC-0537] are 5.23, 69.42%, 0.14, 165.1 nm and -8.81 mV.
`CCCCCCCCCCCCCCCCCC(=O)NC(CCSCCC(=O)OCCCCCCCCCCCC)C(=O)NC1CCN(C)CC1` (stereo not shown) [VC-LC-0434]: the “Apparent pKa” value in data set [1] is listed as 5.72. The “Encaps. efficiency (%)” value in data set [2] was determined as 99.09%. In addition, in data set [3], the P.D.I. amounted to 0.2483, the “Particle size/ Ø (nm)” value came to 214.6 nm and the “Z Potential (± D.E.) [mV]” value was found to be 1.34 mV.
The matching figures for `CCCCCCCCCCCCOC(=O)CCSCCC(NC(=O)C(CCCCCC)CCCCCCCC)C(=O)NCC1CCN(C)CC1` (stereo not shown) [VC-LC-0494]: 6.86, 98.99%, 0.22, 169.8 nm and 5.52 mV.
In the same order, the values of `CCCCCCCC/C=C\CCCCCCCCOC(=O)CCSCCC(NC(=O)CCCCCCCCCCCCCCCCC)C(=O)NC1CCN(C)CC1` (stereo not shown) [VC-LC-0438] are 6.61, 95.26%, 0.15, 181.3 nm and 7.19 mV.
In the same order, the values of `CCCCCCCC/C=C\CCCCCCCCOC(=O)CCSCCC(NC(=O)C(CCCCCCCC)CCCCCCCCCC)C(=O)NCC1CCN(C)CC1` (stereo not shown) [VC-LC-0523] are 7.32, 95.57%, 0.17, 169.3 nm and 5.29 mV.
For `CCCCCCCCC(CCCCCC)COC(=O)C(CCSCCC(=O)OCC(CC)CCCC)C(=O)NCCCN1CCOCC1` (stereo not shown) [VC-LC-0608], the “Apparent pKa” value in data set [1] stood at 5.88. Moreover, the “Encaps. efficiency (%)” value in data set [2] worked out at 50.40%. Besides, in data set [3], the P.D.I. amounted to 0.20, the “Particle size/ Ø (nm)” value is 179.2 nm and the “Z Potential (± D.E.) [mV]” value is on record as -11.14 mV.
The matching figures for `CCCCCCCCCCC(CCCCCCCC)C(=O)NC(CCSCCC(=O)OCCCCCC)C(=O)NCC1CCN(C)CC1` (stereo not shown) [VC-LC-0518]: 6.67, 97.70%, 0.17, 149.1 nm and 3.90 mV.
The matching figures for `CCCCCCCCCCC(CCCCCCCC)C(=O)NC(CCSCCC(=O)OCC(CC)CCCC)C(=O)NCC1CCN(C)CC1` (stereo not shown) [VC-LC-0510]: 7.39, 97.61%, 0.15, 144.9 nm and -2.73 mV.
In the same order, the values of `CCCC#CCCOC(=O)CCSCCC(NC(=O)C(CCCCCC)CCCCCCCC)C(=O)NC1CCN(C)CC1` (stereo not shown) [VC-LC-0432] are 6.44, 46.27%, 0.29, 126.9 nm and -16.42 mV.
`CCCCCCCCC(CCCCCC)C(=O)NC(CCSCCC(=O)OCC(CC)CCCC)C(=O)NCCCn1ccnc1` (stereo not shown) [VC-LC-0259]: the “Apparent pKa” value in data set [1] is listed as 6.21. The “Encaps. efficiency (%)” value in data set [2] is on record as 41.89%. In data set [3], the P.D.I. was 0.14, the “Particle size/ Ø (nm)” value is 138.8 nm and the “Z Potential (± D.E.) [mV]” value is recorded as -8.47 mV.
In the same order, the values of `CCCCCCCCCCC(CCCCCCCC)C(=O)NC(CCSCCC(=O)OCCCCCCCC)C(=O)NCC1CCN(C)CC1` (stereo not shown) [VC-LC-0519] are 6.69, 97.15%, 0.16, 137.9 nm and -1.93 mV.
Consider `CCCCCCCCCCCCCCCCOC(=O)CCSCCC(C(=O)NC1CCN(C)CC1)C(=O)OC(CCCCCCCC)CCCCCCCC` (stereo not shown) [VC-LC-0445], for which, in data set [1], the “Apparent pKa” value stood at 5.82. Also, the “Encaps. efficiency (%)” value in data set [2] is recorded as 48.02%. For the same molecule, the “Z Potential (± D.E.) [mV]” value in data set [3] is reported as -10.64 mV.
For `CCCCCCCCC(CCCCCCCC)OC(=O)C(CSCCC(=O)OCC(CC)CCCC)CC(=O)NCCCN1CCOCC1` (stereo not shown) [VC-LC-0543], the “Apparent pKa” value in data set [1] is 6.61. In addition, the “Encaps. efficiency (%)” value in data set [2] was determined as 31.75%. Also, in data set [3], the P.D.I. is reported as 0.14, the “Particle size/ Ø (nm)” value turned out to be 155.7 nm and the “Z Potential (± D.E.) [mV]” value is recorded as -10.98 mV.
In the same order, the values of `CCCCCCCCC(CCCCCC)COC(=O)C(CSCCC(=O)OCCCCCC(C)C)CC(=O)NC1CCN(C)CC1` (stereo not shown) [VC-LC-0532] are 8.11, 99.89%, 0.15, 137.8 nm and 8.05 mV.
The matching figures for `CCCCCCCCC(CCCCCC)C(=O)NC(CCSCCC(=O)OCCCCCCCC(C)C)C(=O)NCCN(CC)CC` (stereo not shown) [VC-LC-0475]: 6.59, 52.31%, 0.13, 135 nm and -4.72 mV.
The matching figures for `CCCCCCCC#CCOC(=O)CCSCCC(NC(=O)C(CCCCCC)CCCCCCCC)C(=O)NC1CCN(C)CC1` (stereo not shown) [VC-LC-0429]: 6.48, 46.96%, 0.14, 155.6 nm and -12.49 mV.
As to `CCCCCCCC/C=C\CCCCCCCCOC(=O)CCSCCC(NC(=O)C(CCCCCC)CCCCCCCC)C(=O)NC1CCN(C)CC1` (stereo not shown) [VC-LC-0430], in data set [1], the “Apparent pKa” value turned out to be 7.00. Besides, the “Encaps. efficiency (%)” value in data set [2] is reported as 84.48%. In addition, in data set [3], the P.D.I. was determined as 0.23, the “Particle size/ Ø (nm)” value was determined as 216.2 nm and the “Z Potential (± D.E.) [mV]” value worked out at 1.65 mV.
